# In patent US20250176599A1, “FLAVOR COMPOSITION AND FOOD AND BEVERAGE” (TAKASAGO INTERNATIONAL CORPORATION, priority 2021, published 2025):
# Legend:
# [1] = Sensory evaluation of aqueous solution I containing (E)-2-nonenal 1 ppb: off-flavor intensity and masking component intensity; conditions: (E)-2-nonenal 1 ppb, average score 0-4
# Procedure, shortened: (§1)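 Nootkatone added to degradation-component solutions in ion-exchanged water and scored by eight experienced panelists. Off-flavor rated 0–4 relative to unmasked solution (4) and plain water (0). Masking-component intensity rated on an absolute 0–4 scale.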
# [2] = Sensory evaluation of aqueous solution VI containing 1,5-octadien-3-ol 10 ppb: off-flavor intensity and masking component intensity; conditions: aqueous solution VI, 1,5-octadien-3-ol 10 ppb, average score 0-4
# Procedure, shortened: as §1
# [3] = Sensory evaluation of aqueous solution IV containing 1,5-octadien-3-one 100 ppt: off-flavor intensity and masking component intensity; conditions: aqueous solution IV, 1,5-octadien-3-one 100 ppt, average score 0-4
# Procedure, shortened: as §1
# [4] = Overall conclusion of the sensory evaluation across aqueous solutions I to VI
# Procedure, shortened: as §1
# [5] = Sensory evaluation of aqueous solution III containing 1-octen-3-one 1 ppb: off-flavor intensity and masking component intensity; conditions: 1-octen-3-one 1 ppb, average score 0-4
# Procedure, shortened: as §1
# [6] = Sensory evaluation of aqueous solution V containing 1-octen-3-ol 10 ppb: off-flavor intensity and masking component intensity; conditions: 1-octen-3-ol 10 ppb, average score 0-4
# Procedure, shortened: as §1
# [7] = Sensory evaluation of aqueous solution II containing (E)-2-octenal 10 ppb: off-flavor intensity and masking component intensity; conditions: (E)-2-octenal 10 ppb, average score 0-4
# Procedure, shortened: as §1
smiles,measurement,setting,value
"C/C=C/C(=O)C1=C(C)C=CCC1(C)C [β-Damascenone, β-damascenone]",Off-Flavor Intensity,[1]; 0.001 ppt added,3.5 points
same,Off-Flavor Intensity,[1]; 0.01 ppt added,3.5 points
same,Off-Flavor Intensity,[1]; 0.1 ppt added,2.9 points
same,Off-Flavor Intensity,[1]; 1 ppb added,1.8 points
same,Off-Flavor Intensity,[1]; 1 ppt added,2.5 points
same,Off-Flavor Intensity,[1]; 10 ppb added,1.4 points
same,Off-Flavor Intensity,[1]; 10 ppt added,2.4 points
same,Off-Flavor Intensity,[1]; 100 ppb added,1.0 points
same,Off-Flavor Intensity,[1]; 100 ppt added,2.3 points
same,Off-Flavor Intensity,[2]; 0.001 ppt added,2.6 points
same,Off-Flavor Intensity,[2]; 0.01 ppt added,2.1 points
same,Off-Flavor Intensity,[2]; 0.1 ppt added,1.9 points
same,Off-Flavor Intensity,[2]; 1 ppb added,0.6 points
same,Off-Flavor Intensity,[2]; 1 ppt added,1.7 points
same,Off-Flavor Intensity,[2]; 10 ppb added,0.2 points
same,Off-Flavor Intensity,[2]; 10 ppt added,1.3 points
same,Off-Flavor Intensity,[2]; 100 ppb added,0.0 points
same,Off-Flavor Intensity,[2]; 100 ppt added,0.9 points
same,Off-Flavor Intensity,[3]; 0.001 ppt added,3.5 points
same,Off-Flavor Intensity,[3]; 0.01 ppt added,3.4 points
same,Off-Flavor Intensity,[3]; 0.1 ppt added,3.3 points
same,Off-Flavor Intensity,[3]; 1 ppb added,2.3 points
same,Off-Flavor Intensity,[3]; 1 ppt added,3.1 points
same,Off-Flavor Intensity,[3]; 10 ppb added,1.6 points
same,Off-Flavor Intensity,[3]; 10 ppt added,2.8 points
same,Off-Flavor Intensity,[3]; 100 ppb added,1.6 points
same,Off-Flavor Intensity,[3]; 100 ppt added,2.5 points
same,"concentration that masks the off-flavor and does not affect the flavor of the food and/or beverage itself, lower limit",[4],≥ 0.001 ppt
same,"concentration that masks the off-flavor and does not affect the flavor of the food and/or beverage itself, upper limit",[4],≤ 10 ppb
same,Off-Flavor Intensity,[5]; 0.001 ppt added,3.6 points
same,Off-Flavor Intensity,[5]; 0.01 ppt added,3.6 points
same,Off-Flavor Intensity,[5]; 0.1 ppt added,3.3 points
same,Off-Flavor Intensity,[5]; 1 ppb added,1.9 points
same,Off-Flavor Intensity,[5]; 1 ppt added,2.9 points
same,Off-Flavor Intensity,[5]; 10 ppb added,1.4 points
same,Off-Flavor Intensity,[5]; 10 ppt added,2.5 points
same,Off-Flavor Intensity,[5]; 100 ppb added,1.3 points
same,Off-Flavor Intensity,[5]; 100 ppt added,2.3 points
same,Off-Flavor Intensity,[6]; 0.001 ppt added,3.4 points
same,Off-Flavor Intensity,[6]; 0.01 ppt added,3.1 points
same,Off-Flavor Intensity,[6]; 0.1 ppt added,2.6 points
same,Off-Flavor Intensity,[6]; 1 ppb added,1.5 points
same,Off-Flavor Intensity,[6]; 1 ppt added,2.4 points
same,Off-Flavor Intensity,[6]; 10 ppb added,1.1 points
same,Off-Flavor Intensity,[6]; 10 ppt added,2.4 points
same,Off-Flavor Intensity,[6]; 100 ppb added,0.8 points
same,Off-Flavor Intensity,[6]; 100 ppt added,2.0 points
same,Off-Flavor Intensity,[7]; 0.001 ppt added,2.9 points
same,Off-Flavor Intensity,[7]; 0.01 ppt added,2.8 points
same,Off-Flavor Intensity,[7]; 0.1 ppt added,2.4 points
same,Off-Flavor Intensity,[7]; 1 ppb added,1.1 points
same,Off-Flavor Intensity,[7]; 1 ppt added,2.1 points
same,Off-Flavor Intensity,[7]; 10 ppb added,0.9 points
same,Off-Flavor Intensity,[7]; 10 ppt added,1.9 points
same,Off-Flavor Intensity,[7]; 100 ppb added,0.8 points
same,Off-Flavor Intensity,[7]; 100 ppt added,1.4 points
"CC(=O)/C=C/C1=C(C)CCCC1(C)C [β-Ionone, β-ionone]",Off-Flavor Intensity,[1]; 0.01 ppt added,3.4 points
same,Off-Flavor Intensity,[1]; 0.1 ppt added,3.1 points
same,Off-Flavor Intensity,[1]; 1 ppb added,1.8 points
same,Off-Flavor Intensity,[1]; 1 ppm added,0.5 points
same,Off-Flavor Intensity,[1]; 1 ppt added,2.6 points
same,Off-Flavor Intensity,[1]; 10 ppb added,1.4 points
same,Off-Flavor Intensity,[1]; 10 ppt added,2.6 points
same,Off-Flavor Intensity,[1]; 100 ppb added,0.8 points
same,Off-Flavor Intensity,[1]; 100 ppt added,2.3 points
same,Off-Flavor Intensity,[2]; 0.01 ppt added,3.3 points
same,Off-Flavor Intensity,[2]; 0.1 ppt added,2.9 points
same,Off-Flavor Intensity,[2]; 1 ppb added,1.8 points
same,Off-Flavor Intensity,[2]; 1 ppm added,0.4 points
same,Off-Flavor Intensity,[2]; 1 ppt added,2.6 points
same,Off-Flavor Intensity,[2]; 10 ppb added,1.5 points
same,Off-Flavor Intensity,[2]; 10 ppt added,2.3 points
same,Off-Flavor Intensity,[2]; 100 ppb added,0.8 points
same,Off-Flavor Intensity,[2]; 100 ppt added,2.1 points
same,Off-Flavor Intensity,[3]; 0.01 ppt added,3.8 points
same,Off-Flavor Intensity,[3]; 0.1 ppt added,3.5 points
same,Off-Flavor Intensity,[3]; 1 ppb added,2.5 points
same,Off-Flavor Intensity,[3]; 1 ppm added,1.0 points
same,Off-Flavor Intensity,[3]; 1 ppt added,3.5 points
same,Off-Flavor Intensity,[3]; 10 ppb added,2.3 points
same,Off-Flavor Intensity,[3]; 10 ppt added,3.4 points
same,Off-Flavor Intensity,[3]; 100 ppb added,1.6 points
same,Off-Flavor Intensity,[3]; 100 ppt added,3.0 points
same,"concentration that masks the off-flavor and does not affect the flavor of the food and/or beverage itself, lower limit",[4],≥ 0.1 ppt
same,"concentration that masks the off-flavor and does not affect the flavor of the food and/or beverage itself, upper limit",[4],≤ 100 ppb
same,Off-Flavor Intensity,[5]; 0.01 ppt added,3.5 points
same,Off-Flavor Intensity,[5]; 0.1 ppt added,3.3 points
same,Off-Flavor Intensity,[5]; 1 ppb added,2.0 points
same,Off-Flavor Intensity,[5]; 1 ppm added,0.8 points
same,Off-Flavor Intensity,[5]; 1 ppt added,3.0 points
same,Off-Flavor Intensity,[5]; 10 ppb added,1.6 points
same,Off-Flavor Intensity,[5]; 10 ppt added,2.8 points
same,Off-Flavor Intensity,[5]; 100 ppb added,1.4 points
same,Off-Flavor Intensity,[5]; 100 ppt added,2.5 points
same,Off-Flavor Intensity,[6]; 0.01 ppt added,3.3 points
same,Off-Flavor Intensity,[6]; 0.1 ppt added,3.0 points
same,Off-Flavor Intensity,[6]; 1 ppb added,1.8 points
same,Off-Flavor Intensity,[6]; 1 ppm added,0.3 points
same,Off-Flavor Intensity,[6]; 1 ppt added,2.5 points
same,Off-Flavor Intensity,[6]; 10 ppb added,1.4 points
same,Off-Flavor Intensity,[6]; 10 ppt added,2.5 points
same,Off-Flavor Intensity,[6]; 100 ppb added,0.8 points
same,Off-Flavor Intensity,[6]; 100 ppt added,2.3 points
same,Off-Flavor Intensity,[7]; 0.01 ppt added,3.1 points
same,Off-Flavor Intensity,[7]; 0.1 ppt added,3.0 points
same,Off-Flavor Intensity,[7]; 1 ppb added,1.6 points
same,Off-Flavor Intensity,[7]; 1 ppm added,0.1 points
same,Off-Flavor Intensity,[7]; 1 ppt added,2.6 points
same,Off-Flavor Intensity,[7]; 10 ppb added,1.4 points
same,Off-Flavor Intensity,[7]; 10 ppt added,2.3 points
same,Off-Flavor Intensity,[7]; 100 ppb added,0.8 points
same,Off-Flavor Intensity,[7]; 100 ppt added,2.0 points
